This test in a line: Antioxidant activity in brain homogenate assessed as drug level require to inhibit 50% of spontaneous lipid peroxidation relative to control. Type of test: functional, tissue-based.
Turning to `COc1cc(O)c(C(=O)CCc2ccc(O)cc2)c(OC)c1`, the Activity came to 4.7 µg/mL. With `COc1ccc(CCC(=O)c2c(OC)cc(O)c([C@H](c3ccc(O)cc3)[C@@H](C)[C@H](C)Cc3ccc(O)cc3)c2O)cc1` (relative stereo), the Activity was determined as 4.8 µg/mL. Regarding `O=c1c(O)c(-c2ccc(O)c(O)c2)oc2cc(O)cc(O)c12`, the Activity stood at 7.6 µg/mL. Take `COc1ccc(CCC(=O)c2c(OC)cc(O)c([C@@H](c3ccc(O)cc3)[C@@H](C)[C@H](C)Cc3ccc(O)cc3)c2O)cc1` (relative stereo): the Activity is 5.5 µg/mL. On to `Cc1c(C)c2c(c(C)c1O)CC[C@@](C)(CCC[C@H](C)CCC[C@H](C)CCCC(C)C)O2`, for which the Activity was 12.1 µg/mL. For `COc1ccc(CCC(=O)c2c(O)cc(O)cc2OC)cc1`, the Activity was 6.9 µg/mL.

(Values after ChEMBL document CHEMBL1144132, “Dihydrochalcones and flavonolignans from Iryanthera lancifolia” (J Nat Prod, 1999).)
